# Results taken from patent US20240293413A1, “COMPOUND AND METHOD FOR TREATING CHEMOTHERAPY-RELATED GASTROINTESTINAL SIDE EFFECTS” (ONQUALITY PHARMACEUTICALS CHINA LTD., priority 2021, published 2024).
# Legend:
# [1] = tested on: constipation caused by a chemotherapeutic agent in Balb/c mice; assay: Examples 406-443 (Table 8): various administration modes of the CDK inhibitor, relief of constipation caused by a chemotherapeutic agent; type: in vivo;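 also: percent of treated mice relieved versus chemotherapy group by feces reduction rate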
# Text: Balb/c mice were fed for 1 week, and then divided into groups. The experiment was divided into a control group, a chemotherapeutic agent group, CDK inhibitor groups (including an oral administration group of a CDK inhibitor, an intravenous injection group of a CDK inhibitor, an intraperitoneal injection group of a CDK inhibitor, an intramuscular injection group of a CDK inhibitor, a local administration group of a CDK inhibitor), each of which comprised 10 mice, to perform the administration experiment, for which the administration dosage, mode, time and frequency were shown in Table 8. The control group: being administered with the same solvent as that used in the CDK inhibitor group (the time and mode were shown in Table 8), and then being injected/intragastrically administered with the same solvent as that used in the chemotherapeutic agent group (the administration mode was shown in Table 8): the chemotherapeutic agent group: being administered with the same solvent as that used in the CDK inhibitor group (the time and mode were shown in Table 8), and then being injected/intragastrically administered with the chemotherapeutic agent (the type, administration mode and dosage were shown in Table 8): the oral administration group of the CDK inhibitor: being intragastrically administered with the CDK inhibitor (the time was shown in Table 8), and then being administered with the chemotherapeutic agent (the mode and dosage were shown in Table 8): the intravenous injection group of the CDK inhibitor: being injected with the CDK inhibitor through tail vein (the time was shown in Table 8), and then being administered with the chemotherapeutic agent (the mode and dosage were shown in Table 8): the intraperitoneal injection group of the CDK inhibitor: being intraperitoneally injected with the CDK inhibitor (the time was shown in Table 8), and then being administered with the chemotherapeutic agent (the mode and dosage were shown in Table 8): the intramuscular injection group of the CDK inhibitor: being intramuscularly injected with the CDK inhibitor (the time was shown in Table 8), and then being administered with the chemotherapeutic agent (the mode and dosage were shown in Table 8); and the local administration group of the CDK inhibitor: the hair on the abdomen of mice was shaved (about 2 cm*2 cm), being applied with the CDK inhibitor (the time was shown in Table 8), and then being administered with the chemotherapeutic agent (the mode and dosage were shown in Table 8).
# Feces reduction rate (%)=(the control group−the chemotherapeutic agent group or the CDK inhibitor group)/the control group*100%
# The feces amount of mice within 3 hours was observed and recorded every day.
# [2] = tested on: constipation caused by the continuous administration of a chemotherapeutic agent in Balb/c mice; assay: Examples 470-481 (Table 10): oral CDK inhibitor, constipation caused by continuous administration of a chemotherapeutic agent; type: in vivo; settings: Fluorouracil (5-Fu) intraperitoneal injection 100 mg/kg once a day
# Text: Balb/c mice were fed for 1 week, and then divided into groups. The experiment was divided into a control group, a chemotherapeutic agent group, and a CDK inhibitor group, each of which comprised 10 mice, to perform the administration experiment, for which the administration dosage, mode, time and frequency were shown in Table 10. The control group: being intragastrically administered with the same solvent as that used in the CDK inhibitor group (the time was shown in Table 10), and then being injected/intragastrically administered with the same solvent as that used in the chemotherapeutic agent group (the administration mode was shown in Table 10): the chemotherapeutic agent group: being intragastrically administered with the same solvent as that used in the CDK inhibitor group (the time was shown in Table 10), and then being injected/intragastrically administered with the chemotherapeutic agent (the type, administration mode, dosage and duration time were shown in Table 10): the CDK inhibitor group: being intragastrically administered with the CDK inhibitor (the time was shown in Table 10), and then being administered with the chemotherapeutic agent (the type, administration mode, dosage and duration time were shown in Table 10).
# The feces reduction rate was calculated with reference to the method of Ji Eun Kim (Lab Anim Res. 2016 December: 32(4): 231-240.). Feces reduction rate (%)=(the control group−the chemotherapeutic agent group or the CDK inhibitor group)/the control group*100%
# It is regarded as effective remission when the feces reduction rate of mice in the CDK inhibitor group is reduced compared with that in the chemotherapeutic agent group.
# The feces amount of mice within 3 hours was observed and recorded every day. At the end of the experiment, the number of mice in the CDK inhibitor group whose feces reduction rate was lower than that of mice in the chemotherapeutic agent group was recorded. Table 10 lists various animal experiment combinations of chemotherapeutic agents and CDK inhibitors, as well as the corresponding experimental results.
smiles,measurement,setting,value
CC(=O)c1c(C)c2cnc(Nc3ccc(N4CCNCC4)cn3)nc2n(C2CCCC2)c1=O [Palbociclib],Relative remission rate of other administration mode,"[1]; Example 406, Doxorubicin (Dox) intraperitoneal injection 12 mg/kg single, CDK inhibitor intravenous injection 150 mg/kg single, 0.5 h before, cycle 8 days",10%
same,Relative remission rate of oral administration,"[1]; Example 406, Doxorubicin (Dox) intraperitoneal injection 12 mg/kg single, CDK inhibitor oral 150 mg/kg single, 0.5 h before, cycle 8 days",20%
same,Relative remission rate of other administration mode,"[1]; Example 407, Doxorubicin (Dox) intraperitoneal injection 12 mg/kg single, CDK inhibitor intravenous injection 150 mg/kg single, 4 h before, cycle 8 days",10%
same,Relative remission rate of oral administration,"[1]; Example 407, Doxorubicin (Dox) intraperitoneal injection 12 mg/kg single, CDK inhibitor oral 150 mg/kg single, 4 h before, cycle 8 days",30%
same,Relative remission rate of other administration mode,"[1]; Example 408, Doxorubicin (Dox) intraperitoneal injection 12 mg/kg single, CDK inhibitor intravenous injection 150 mg/kg single, 8 h before, cycle 8 days",10%
same,Relative remission rate of oral administration,"[1]; Example 408, Doxorubicin (Dox) intraperitoneal injection 12 mg/kg single, CDK inhibitor oral 150 mg/kg single, 8 h before, cycle 8 days",30%
same,Relative remission rate of other administration mode,"[1]; Example 409, Doxorubicin (Dox) intraperitoneal injection 12 mg/kg single, CDK inhibitor intravenous injection 150 mg/kg single, 12 h before, cycle 8 days",20%
same,Relative remission rate of oral administration,"[1]; Example 409, Doxorubicin (Dox) intraperitoneal injection 12 mg/kg single, CDK inhibitor oral 150 mg/kg single, 12 h before, cycle 8 days",50%
same,Relative remission rate of other administration mode,"[1]; Example 410, Doxorubicin (Dox) intraperitoneal injection 12 mg/kg single, CDK inhibitor intravenous injection 150 mg/kg single, 24 h before, cycle 8 days",20%
same,Relative remission rate of oral administration,"[1]; Example 410, Doxorubicin (Dox) intraperitoneal injection 12 mg/kg single, CDK inhibitor oral 150 mg/kg single, 24 h before, cycle 8 days",40%
same,Relative remission rate of other administration mode,"[1]; Example 415, Etoposide (Etop1) intraperitoneal injection 100 mg/kg single, CDK inhibitor intravenous injection 150 mg/kg single, 0.5 h before, cycle 8 days",10%
same,Relative remission rate of oral administration,"[1]; Example 415, Etoposide (Etop1) intraperitoneal injection 100 mg/kg single, CDK inhibitor oral 150 mg/kg single, 0.5 h before, cycle 8 days",20%
same,Relative remission rate of other administration mode,"[1]; Example 416, Etoposide (Etop1) intraperitoneal injection 100 mg/kg single, CDK inhibitor intravenous injection 150 mg/kg single, 4 h before, cycle 8 days",20%
same,Relative remission rate of oral administration,"[1]; Example 416, Etoposide (Etop1) intraperitoneal injection 100 mg/kg single, CDK inhibitor oral 150 mg/kg single, 4 h before, cycle 8 days",40%
same,Relative remission rate of other administration mode,"[1]; Example 417, Etoposide (Etop1) intraperitoneal injection 100 mg/kg single, CDK inhibitor intravenous injection 150 mg/kg single, 8 h before, cycle 8 days",20%
same,Relative remission rate of oral administration,"[1]; Example 417, Etoposide (Etop1) intraperitoneal injection 100 mg/kg single, CDK inhibitor oral 150 mg/kg single, 8 h before, cycle 8 days",40%
same,Relative remission rate of other administration mode,"[1]; Example 418, Etoposide (Etop1) intraperitoneal injection 100 mg/kg single, CDK inhibitor intravenous injection 150 mg/kg single, 12 h before, cycle 8 days",10%
same,Relative remission rate of oral administration,"[1]; Example 418, Etoposide (Etop1) intraperitoneal injection 100 mg/kg single, CDK inhibitor oral 150 mg/kg single, 12 h before, cycle 8 days",30%
same,Relative remission rate of other administration mode,"[1]; Example 419, Etoposide (Etop1) intraperitoneal injection 100 mg/kg single, CDK inhibitor intravenous injection 150 mg/kg single, 24 h before, cycle 8 days",10%
same,Relative remission rate of oral administration,"[1]; Example 419, Etoposide (Etop1) intraperitoneal injection 100 mg/kg single, CDK inhibitor oral 150 mg/kg single, 24 h before, cycle 8 days",30%
same,Relative remission rate of other administration mode,"[1]; Example 422, Etoposide and cisplatin intravenous injection 50 and 5 mg/kg single, CDK inhibitor intravenous injection 150 mg/kg single, 0.5 h before, cycle 7 days",10%
same,Relative remission rate of oral administration,"[1]; Example 422, Etoposide and cisplatin intravenous injection 50 and 5 mg/kg single, CDK inhibitor oral 150 mg/kg single, 0.5 h before, cycle 7 days",40%
same,Relative remission rate of other administration mode,"[1]; Example 423, Etoposide and cisplatin intravenous injection 50 and 5 mg/kg single, CDK inhibitor intravenous injection 150 mg/kg single, 24 h before, cycle 7 days",20%
same,Relative remission rate of oral administration,"[1]; Example 423, Etoposide and cisplatin intravenous injection 50 and 5 mg/kg single, CDK inhibitor oral 150 mg/kg single, 24 h before, cycle 7 days",60%
same,Relative remission rate of other administration mode,"[1]; Example 437, Gemcitabine intravenous injection 120 mg/kg single, CDK inhibitor intravenous injection 200 mg/kg single, 12 h before, cycle 8 days",20%
same,Relative remission rate of oral administration,"[1]; Example 437, Gemcitabine intravenous injection 120 mg/kg single, CDK inhibitor oral 200 mg/kg single, 12 h before, cycle 8 days",50%
same,Remission rate,"[2]; Examples 470-473 (one value given; 2 h, 4 h, 6 h, 8 h before), for 3 days, CDK inhibitor oral 150 mg/kg once a day, for 3 days, cycle 10 days",40%
same,Remission rate,"[2]; Examples 474-477 (one value given; 2 h, 4 h, 6 h, 8 h before), for 5 days, CDK inhibitor oral 125 mg/kg once a day, for 5 days, cycle 9 days",50%
same,Remission rate,"[2]; Examples 478-481 (one value given; 2 h, 4 h, 6 h, 8 h before), for 7 days, CDK inhibitor oral 125 mg/kg once a day, for 7 days, cycle 10 days",10%
